pIC50: −log10 of the molar value.
What was measured:
[1] = Antiproliferative activity against mouse P388 cells assessed as reduction in cell viability measured after 72 hrs; format: functional, cell-based; details: time 72 hrs
P388/ADR = experiment: Antiproliferative activity against mouse P388/ADR cells assessed as reduction in cell viability measured after 72 hrs; format: functional, cell-based; details: time 72 hrs
HCT-116 [2] = experiment: Antiproliferative activity against human HCT-116 cells; format: functional, cell-based
PC-3 = experiment: Antiproliferative activity against human PC-3 cells; format: functional, cell-based
MCF7 = experiment: Anticancer activity against human MCF7 cells; format: functional, cell-based
HT-29 = experiment: Antiproliferative activity against human HT-29 cells assessed as reduction in cell viability; format: functional, cell-based
MDA-MB-231 [3] = experiment: Antiproliferative activity against human MDA-MB-231 cells; format: functional, cell-based; details: Homo sapiens, MDA-MB-231
[4] = Antiproliferative activity against human U-87 MG cells; format: functional, cell-based, U-87MG ATCC
MDA-MB-231 [5] = experiment: Antiproliferative activity against human MDA-MB-231 cells assessed as reduction in cell viability; format: functional, cell-based
A549 = experiment: Antiproliferative activity against human A549 cells; format: functional, cell-based
HCT-116 [6] = experiment: Antiproliferative activity against human HCT-116 cells assessed as reduction in cell viability; format: functional, cell-based; details: Homo sapiens, HCT-116
NCI-H460 = experiment: Antiproliferative activity against human NCI-H460 cells; format: functional, cell-based

SMILES | pIC50 (HT-29) | pIC50 (MDA-MB-231 [3]) | pIC50 (MDA-MB-231 [5]) | pIC50 (A549) | other results
C[C@H]1[C@@H](Oc2ccc(C(=O)N3CCN(Cc4ccccc4)CC3)cc2)O[C@@H]2O[C@@]3(C)CC[C@H]4[C@H](C)CC[C@@H]1[C@@]24OO3 | – | – | – | – | GI50 [1]: 22.1 nM; GI50 (P388/ADR): 22.1 nM
CC1=C(CCCO[C@H]2O[C@@H]3O[C@@]4(C)CC[C@H]5[C@H](C)CC[C@@H]([C@H]2C)[C@@]35OO4)C(=O)C(C(C)C)=CC1=O | – | – | – | – | pIC50 (HCT-116 [2]): < 4.00; pIC50 (PC-3): < 4.00
CC1=C(CCCCO[C@H]2O[C@@H]3O[C@@]4(C)CC[C@H]5[C@H](C)CC[C@@H]([C@H]2C)[C@@]35OO4)C(=O)C(C(C)C)=CC1=O | – | – | – | – | pIC50 (HCT-116 [2]): < 4.00; pIC50 (PC-3): < 4.00
C[C@H]1[C@@H](OC(=O)CCC(=O)O)O[C@@H]2O[C@@]3(C)CC[C@H]4[C@H](C)CC[C@@H]1[C@@]24OO3 | – | – | – | – | pIC50 (HCT-116 [2]): 5.28; pIC50 (PC-3): 5.28
COc1cc([C@@H]2c3cc4c(cc3[C@@H](O[C@@H]3O[C@@H]5CO[C@@H](C)O[C@H]5[C@H](O)[C@H]3O)[C@H]3COC(=O)[C@H]23)OCO4)cc(OC)c1O [ETOPOSIDE] | – | – | – | – | pIC50 (MCF7): 6.08
CC1=C(CCCOC(=O)C[C@H]2O[C@@H]3O[C@@]4(C)CC[C@H]5[C@H](C)CC[C@@H]([C@H]2C)[C@@]35OO4)C(=O)C(C(C)C)=CC1=O | – | – | – | – | pIC50 (HCT-116 [2]): < 4.00; pIC50 (PC-3): < 4.00
C[C@H]1[C@H](OCCNC(=O)c2ccc(COc3ccc(/C=C/S(=O)(=O)Nc4ccc(OC(F)(F)F)cc4)cc3)cc2)O[C@@H]2O[C@@]3(C)CC[C@H]4[C@H](C)CC[C@@H]1[C@@]24OO3 | 7.05 | 7.05 | – | – | pIC50 [4]: 7.05
CCOC(=O)c1cc2ccc(OCCn3cc(CO[C@H]4O[C@@H]5O[C@@]6(C)CC[C@H]7[C@H](C)CC[C@@H]([C@H]4C)[C@@]57OO6)nn3)cc2oc1=O | 6.37 | – | 6.37 | – | –
C.C[C@H]1[C@@H](CC(=O)O[C@@H]2C[C@@H](OC(=O)C[C@H]3O[C@@H]4O[C@@]5(C)CC[C@H]6[C@H](C)CC[C@@H]([C@H]3C)[C@@]46OO5)[C@H](C)O[C@H]2O[C@H](C)CCCCC(=O)O)O[C@@H]2O[C@@]3(C)CC[C@H]4[C@H](C)CC[C@@H]1[C@@]24OO3 | – | – | 5.26 | 5.26 | pIC50 (MCF7): 5.26
Cc1c(Cl)c(=O)oc2cc(OCCn3cc(CO[C@H]4O[C@@H]5O[C@@]6(C)CC[C@H]7[C@H](C)CC[C@@H]([C@H]4C)[C@@]57OO6)nn3)ccc12 | 6.37 | – | 6.37 | – | pIC50 (HCT-116 [6]): 6.37
CC1=C(CCCCOC(=O)CCC(=O)O[C@@H]2O[C@@H]3O[C@@]4(C)CC[C@H]5[C@H](C)CC[C@@H]([C@H]2C)[C@@]35OO4)C(=O)C(C(C)C)=CC1=O | – | – | – | – | pIC50 (HCT-116 [2]): < 4.00; pIC50 (PC-3): < 4.00
CC1=C(CCCCOC(=O)C[C@H]2O[C@@H]3O[C@@]4(C)CC[C@H]5[C@H](C)CC[C@@H]([C@H]2C)[C@@]35OO4)C(=O)C(C(C)C)=CC1=O | – | – | – | – | pIC50 (HCT-116 [2]): < 4.00; pIC50 (PC-3): < 4.00
CCOC(=O)c1cc2ccc(OCCCn3cc(CO[C@H]4O[C@@H]5O[C@@]6(C)CC[C@H]7[C@H](C)CC[C@@H]([C@H]4C)[C@@]57OO6)nn3)cc2oc1=O | 6.37 | – | 6.37 | – | –
CC1=CC(=O)C(C(C)C)=CC1=O [THYMOQUINONE] | – | – | – | – | pIC50 (HCT-116 [2]): 4.30; pIC50 (PC-3): 4.30
C[C@H]1[C@@H](OCc2cn(CCOc3ccc4c(C(F)(F)F)cc(=O)oc4c3)nn2)O[C@@H]2O[C@@]3(C)CC[C@H]4[C@H](C)CC[C@@H]1[C@@]24OO3 | 6.37 | – | 6.37 | – | pIC50 (HCT-116 [6]): 6.37
C[C@H]1[C@@H](Oc2ccc(C(=O)N3CCN(C/C=C/c4ccccc4)CC3)cc2)O[C@@H]2O[C@@]3(C)CC[C@H]4[C@H](C)CC[C@@H]1[C@@]24OO3 | – | – | – | – | GI50 [1]: 22.1 nM; GI50 (P388/ADR): 22.1 nM
Cc1ccc(F)c(NS(=O)(=O)/C=C/c2cccc(OCCOC3O[C@@H]4O[C@@]5(C)CC[C@H]6[C@H](C)CC[C@@H]([C@H]3C)[C@@]46OO5)c2)c1 (stereo partly drawn) | 7.30 | 7.30 | – | 7.30 | pIC50 [4]: 7.30; pIC50 (NCI-H460): 7.30
C[C@H]1[C@H](OCCNC(=O)c2ccc(COc3ccc(/C=C/S(=O)(=O)Nc4ccc(Cl)cc4)cc3)cc2)O[C@@H]2O[C@@]3(C)CC[C@H]4[C@H](C)CC[C@@H]1[C@@]24OO3 | 7.05 | 7.05 | – | – | pIC50 [4]: 7.05; pIC50 (NCI-H460): 7.05
Cc1c(Cl)c(=O)oc2cc(OCCCn3cc(CO[C@H]4O[C@@H]5O[C@@]6(C)CC[C@H]7[C@H](C)CC[C@@H]([C@H]4C)[C@@]57OO6)nn3)ccc12 | 6.37 | – | 6.37 | – | –

SMILES | pIC50 (HT-29) | pIC50 (MDA-MB-231 [3]) | pIC50 (MDA-MB-231 [5]) | pIC50 (A549) | other results
Cc1c(C)c2ccc(OCCCn3cc(CO[C@H]4O[C@@H]5O[C@@]6(C)CC[C@H]7[C@H](C)CC[C@@H]([C@H]4C)[C@@]57OO6)nn3)cc2oc1=O | 6.37 | – | 6.37 | – | –
C[C@H]1[C@H](OCCOc2cccc(/C=C/S(=O)(=O)Nc3ccccc3)c2)O[C@@H]2O[C@@]3(C)CC[C@H]4[C@H](C)CC[C@@H]1[C@@]24OO3 | 7.30 | 7.30 | – | 7.30 | pIC50 [4]: 7.30; pIC50 (NCI-H460): 7.30
C[C@H]1[C@@H](OCc2cn(CCCOc3ccc4c(C(F)(F)F)cc(=O)oc4c3)nn2)O[C@@H]2O[C@@]3(C)CC[C@H]4[C@H](C)CC[C@@H]1[C@@]24OO3 | 6.37 | – | 6.37 | – | pIC50 (HCT-116 [6]): 6.37
C[C@H]1[C@@H](CC(=O)O[C@@H]2C[C@@H](OC(=O)C[C@H]3O[C@@H]4O[C@@]5(C)CC[C@H]6[C@H](C)CC[C@@H]([C@H]3C)[C@@]46OO5)[C@H](C)O[C@H]2O[C@H](C)CCCCC2OCOO2)O[C@@H]2O[C@@]3(C)CC[C@H]4[C@H](C)CC[C@@H]1[C@@]24OO3 (stereo partly drawn) | – | – | 5.26 | 5.26 | pIC50 (MCF7): 5.26
C[C@H]1[C@H](OCCOc2cccc(/C=C/S(=O)(=O)Nc3ccc(OC(F)(F)F)cc3)c2)O[C@@H]2O[C@@]3(C)CC[C@H]4[C@H](C)CC[C@@H]1[C@@]24OO3 | 7.30 | 7.30 | – | 7.30 | pIC50 [4]: 7.30; pIC50 (NCI-H460): 7.30
C[C@H]1[C@H](OCCOc2cccc(/C=C/S(=O)(=O)Nc3c(Cl)cccc3Cl)c2)O[C@@H]2O[C@@]3(C)CC[C@H]4[C@H](C)CC[C@@H]1[C@@]24OO3 | 7.30 | 7.30 | – | 7.30 | pIC50 [4]: 7.30; pIC50 (NCI-H460): 7.30
C[C@@H]1CC[C@H]2[C@@H](C)C(OCCOc3cccc(/C=C/S(=O)(=O)Nc4ccc(Cl)cc4)c3)O[C@@H]3O[C@@]4(C)CC[C@@H]1[C@]32OO4 (single isomer, unassigned) | 7.30 | 7.30 | – | 7.30 | pIC50 [4]: 7.30; pIC50 (NCI-H460): 7.30
Cc1cc(=O)oc2cc(OCCCn3cc(CO[C@H]4O[C@@H]5O[C@@]6(C)CC[C@H]7[C@H](C)CC[C@@H]([C@H]4C)[C@@]57OO6)nn3)ccc12 | 6.37 | – | 6.37 | – | –
Cc1cc(=O)oc2cc(OCCn3cc(CO[C@H]4O[C@@H]5O[C@@]6(C)CC[C@H]7[C@H](C)CC[C@@H]([C@H]4C)[C@@]57OO6)nn3)ccc12 | 6.37 | – | 6.37 | – | pIC50 (HCT-116 [6]): 6.37
Cc1ccc(F)c(NS(=O)(=O)/C=C/c2ccc(OCc3ccc(C(=O)NCCO[C@@H]4O[C@@H]5O[C@@]6(C)CC[C@H]7[C@H](C)CC[C@@H]([C@H]4C)[C@@]57OO6)cc3)cc2)c1 | 7.05 | 7.05 | – | 7.05 | pIC50 [4]: 7.05; pIC50 (NCI-H460): 7.05
CC1=C(CCOC(=O)CCC(=O)O[C@@H]2O[C@@H]3O[C@@]4(C)CC[C@H]5[C@H](C)CC[C@@H]([C@H]2C)[C@@]35OO4)C(=O)C(C(C)C)=CC1=O | – | – | – | – | pIC50 (HCT-116 [2]): 5.62; pIC50 (PC-3): 5.62
Cc1c(C)c2ccc(OCCn3cc(CO[C@H]4O[C@@H]5O[C@@]6(C)CC[C@H]7[C@H](C)CC[C@@H]([C@H]4C)[C@@]57OO6)nn3)cc2oc1=O | 6.37 | – | 6.37 | – | pIC50 (HCT-116 [6]): 6.37
C[C@H]1[C@H](OCCOc2cccc(/C=C/S(=O)(=O)Nc3ccccc3Cl)c2)O[C@@H]2O[C@@]3(C)CC[C@H]4[C@H](C)CC[C@@H]1[C@@]24OO3 | 7.30 | 7.30 | – | 7.30 | pIC50 [4]: 7.30; pIC50 (NCI-H460): 7.30
C[C@H]1[C@H](OCCNC(=O)c2ccc(COc3ccc(/C=C/S(=O)(=O)Nc4cccc(Cl)c4)cc3)cc2)O[C@@H]2O[C@@]3(C)CC[C@H]4[C@H](C)CC[C@@H]1[C@@]24OO3 | 7.05 | 7.05 | – | 7.05 | pIC50 (NCI-H460): 7.05
C[C@H]1[C@H](OCCOc2cccc(/C=C/S(=O)(=O)Nc3cccc(Cl)c3)c2)O[C@@H]2O[C@@]3(C)CC[C@H]4[C@H](C)CC[C@@H]1[C@@]24OO3 | 7.30 | 7.30 | – | 7.30 | pIC50 [4]: 7.30; pIC50 (NCI-H460): 7.30
CC1=C(CCCOC(=O)CCC(=O)O[C@@H]2O[C@@H]3O[C@@]4(C)CC[C@H]5[C@H](C)CC[C@@H]([C@H]2C)[C@@]35OO4)C(=O)C(C(C)C)=CC1=O | – | – | – | – | pIC50 (HCT-116 [2]): < 4.00; pIC50 (PC-3): < 4.00
Cc1ccccc1NS(=O)(=O)/C=C/c1cccc(OCCO[C@@H]2O[C@@H]3O[C@@]4(C)CC[C@H]5[C@H](C)CC[C@@H]([C@H]2C)[C@@]35OO4)c1 | 7.30 | 7.30 | – | 7.30 | pIC50 [4]: 7.30; pIC50 (NCI-H460): 7.30
C[C@H]1[C@H](OCCNC(=O)c2ccc(COc3ccc(/C=C/S(=O)(=O)Nc4ccccc4Cl)cc3)cc2)O[C@@H]2O[C@@]3(C)CC[C@H]4[C@H](C)CC[C@@H]1[C@@]24OO3 | 7.05 | 7.05 | – | 7.05 | –

— ChEMBL document CHEMBL5244230, “Artemisinin-derived hybrids and their anticancer activity” (Eur J Med Chem, 2020)
